Data as given in PMC12163684, “Gunacins: Novel Benzo[g]chromene Derivatives from the Fungus Exobasidium sp. and Their Potent Anti-Leishmania and Trypanosoma Activities” (ACS Omega, 2025).

Key:
[1] = tested on: HeLa adenocarcinoma cell line; experiment: Effect on cell morphology, fluorescence microscopy (MitoTracker Red CMXRos, Phalloidin, DAPI); type: cell-based; details: 24 h; for concentration at which effects on morphology / mitochondrial signal were observed, HeLa cells: tested at 5, 25, 50, 100, 125 μM
Experimental: (§1) MDCK and RAT cells were cultured in DMEM with 10% FBS at 37 °C in a 5% CO2 atmosphere as described previously. , To assess the toxic effects of the compounds on proliferating cells, cells were seeded in 24-well plates for 24 h to reach ∼15% confluence, and cells were treated in triplicate with increasing concentrations of the isolated compounds for an additional 24 h. Cells were washed with 1× PBS, fixed in staining solution (0.5% crystal violet, 20% methanol) for 10 min, and gently washed five times in 1× PBS. The fixed cells were then dissolved in lysis solution (0.1 M sodium citrate, 25% ethanol, pH 4.2) for 30 min, transferred to a 96-well plate in H2O, and the OD^590 was determined. EC50 values were determined using GraphPad Prism software and the dose–response fit equation. The EC50 values were determined from two independent experiments. Additionally, the impact of the isolated substances on the morphology of the HeLa adenocarcinoma cell line and primary human skin fibroblasts was examined by using fluorescence microscopy. Cells were cultured in DME medium supplemented with 10% FCS (Gibco, Invitrogen, Carlsbad, USA) on glass coverslips in 24-well plates until reaching approximately 50% confluence. The cells were treated with varying concentrations of isolated compounds dissolved in DMSO. Wells containing DMEM with DMSO served as the negative control. After 24 h cultivation, the cells were incubated with MitoTracker Red CMXRos (10 min) to label mitochondria, then fixed with 3.7% paraformaldehyde in PBS (20 min, room temperature), permeabilized with 0.1% Triton X-100 in PBS, and blocked with 1% BSA in PBS. The cells were then stained with Phalloidin-Alexa Fluor488 conjugate. All fluorescence reagents were purchased from Molecular Probes, Invitrogen, Carlsbad, CA, USA. Nuclei were stained with Fluoroshield DAPI (Sigma-Aldrich), and cells were examined using an IX71 microscope equipped with a DP70 camera and a 40× objective. Assays were performed at concentrations of 5, 25, 50, 100, and 125 μM.

[2] = tested on: primary human skin fibroblasts; experiment: as above; type: cell-based; details: 24 h; for concentration at which effects on morphology / mitochondrial signal were observed, fibroblasts: tested at 5, 25, 50, 100, 125 μM
Experimental: as §1

[3] = tested on: T. b. gambiense LiTat 1.3; experiment: Anti-trypanosomal activity, resazurin (AB assay), bloodstream form; type: cell-based, T. brucei gambiense; details: Trypanosoma brucei, 72 h, axenic, 48 h + 24 h resazurin
Experimental: (§2) The bloodstream forms of T. b. gambiense LiTat 1.3, T. b. brucei 427, and T. b. evansi AnTat 3/3 were grown in HMI-11 medium pH 7.3 supplemented with 36 mM sodium bicarbonate, 100 U/mL penicillin/streptomycin, and 10% fetal bovine serum at 37 °C and 5% CO2. The bloodstream form of Trypanosoma congolense IL3000 (generous gift from Liam Morrison) was cultured in TcBSF-1 medium pH 7.3 supplemented with 26 mM sodium bicarbonate, 25 mM HEPES, 5.5 mM glucose, 1 mM sodium pyruvate, 0.04 mM adenosine, 0.1 mM hypoxanthine, 0.02 mM thymidine, 0.02 mM bathocuproine, 2 mM L-glutamine, 0.2 mM 2-mercaptoethanol, 100 U/ml penicillin/streptomycin, and 20% goat serum New Zealand origin (Gibco) at 34 °C, 5% CO2. The assay for anti-trypanosomal activity was performed using the resazurin sodium salt dye (AB Assay) according to the published protocol in a 96-well plate format. Parasites at a number of 5 × 10^3 per well (T. b. brucei and T. b. gambiense) or 1 × 10^4 per well (T. b. evansi) were incubated with different drug concentrations (2-fold serial dilutions) in a volume of 200 μL of the medium. Medium with 1% DMSO (the highest concentration of the solvent used in the assay) was used to confirm no effect of the solvent on the cell growth. The plates were incubated for 48 h at the appropriate temperature. Then, 20 μL of resazurin sodium salt solution (0.125 mg/mL in 1× PBS, pH 7. 4) was added to each well, and the cells were incubated for another 24 h under the same conditions. The fluorescence signal was quantified using a Tecan Infinite M200 plate reader at excitation and emission wavelengths of 560 and 590 nm, respectively. The EC50 values were calculated using GraphPad Prism 9.5.1 by nonlinear regression with a variable slope. Each EC50 value is the mean ± standard error of the mean of three separate experiments performed in duplicate.

T. b. brucei 427 = experiment: as above; type: cell-based; details: Trypanosoma brucei, 72 h, axenic, 48 h + 24 h resazurin
Experimental: as §2

[4] = tested on: Trypanosoma congolense IL3000; experiment: as above; type: cell-based; details: 72 h, axenic, 48 h + 24 h resazurin, read-out: EC50 T. congolense
Experimental: as §2

[5] = tested on: L. mexicana (MNYC/BZ/1962/M379) amastigote; experiment: Anti-Leishmania activity, AB assay, axenic amastigotes; type: cell-based
Experimental: Promastigote stages of L. mexicana (MNYC/BZ/1962/M379), a generous gift from Vyacheslav Yurchenko, were cultured in M199 medium pH 7.4 supplemented with 2 μg/mL biopterin, 2 μg/mL hemin, 25 mM HEPES, 100 U/mL penicillin/streptomycin, and 10% heat-inactivated FBS (BioSera) pH 7.4 at 25 °C. The amastigotes were differentiated in vitro from late log/stationary promastigote cultures and cultivated in Schneider’s Drosophila Medium (SIM) at pH 5.5, supplemented with 1.5 μg/mL hemin, 100 U/mL penicillin/streptomycin, and 20% heat-inactivated FBS (BioSera) at pH 5.5, at 32 °C, and 5% CO2. Following a three-day period, the promastigotes underwent a transformation into amastigotes, which were then maintained in SIM.
To estimate the EC50, the AB assay, as previously described, was employed. The results are expressed as EC50, representing the dose of the compound required to inhibit cellular growth by 50%. Each EC50 value is the mean ± the standard error of the mean derived from at least three separate experiments, each performed in duplicate.

T. b. evansi AnTat 3/3 = experiment: Anti-trypanosomal activity, resazurin (AB assay), bloodstream form; type: cell-based, T. brucei evansi; details: Trypanosoma brucei, 72 h, axenic, 48 h + 24 h resazurin
Experimental: as §2

SMILES | concentration causing complete loss of live adherent cells, HeLa cells [1] | concentration at which effects on morphology / mitochondrial signal were observed, HeLa cells [1] | concentration at which effects on morphology / mitochondrial signal were observed, fibroblasts [2] | EC50 [3] | EC50 (T. b. brucei 427) | EC50 [4] | EC50 [5] | EC50 (T. b. evansi AnTat 3/3) | concentration causing complete loss of live adherent cells, fibroblasts [2]
COc1cc(O)c2c(c1)C(=O)C1=C(C2=O)[C@H](O)[C@@H](O)[C@@H](C)O1 (relative stereo) [Compound 3, (2R,3R,4S)-3,4,6-trihydroxy-8-methoxy-2-methyl-3,4-dihydro-2H-benzo[g]chromene-5,10-dione] | 125 µM | 25 μM | 125 μM | 4100 nM | 4300 nM | 5800 nM | 5600 nM | 4200 nM | –
COc1cc(O)c2c(c1)C(=O)C1=C(C2=O)[C@@H](OC(C)=O)[C@@H](O)[C@@H](C)O1 [Compound 1, (2R,3S,4R)-3,6-dihydroxy-8-methoxy-2-methyl-5,10-dioxo-3,4,5,10-tetrahydro-2H-benzo[g]chromen-4-yl acetate] | – | 125 μM | 5 μM | 40 nM | 60 nM | 20 nM | 10 nM | 30 nM | –
COc1cc(O)c2c(c1)C(=O)C1=C(C2=O)[C@@H](O)[C@@H](OC(C)=O)[C@@H](C)O1 [Compound 5, (2R,3R,4R)-4,6-dihydroxy-8-methoxy-2-methyl-5,10-dioxo-3,4,5,10-tetrahydro-2H-benzo[g]chromen-3-yl acetate] | – | 125 μM | 5 μM | 30 nM | 60 nM | 20 nM | 10 nM | 40 nM | –
COc1cc(O)c2c(c1)C(=O)C1=C(C[C@@H](OC(C)=O)[C@@H](C)O1)C2=O [Compound 7, (2R,3R)-6-hydroxy-8-methoxy-2-methyl-5,10-dioxo-3,4,5,10-tetrahydro-2H-benzo[g]chromen-3-yl acetate] | – | > 125 μM | > 25 μM | 5700 nM | 900 nM | 2400 nM | 2500 nM | 700 nM | 125 µM
